{
  "source": "patent US7186863B2",
  "about": "“Sertraline compositions” (TransForm Pharmaceuticals, Inc., priority 2003, dated 2007)",
  "note": "Structures can show the parent of a compound that is named as a salt.",
  "data": [
    {"test": "Solubility of sertraline salt forms", "conditions": "medium not given; aqueous solubility", "units": {"Solubility": "µg/mL"}, "values": [
      {"molecule": "CN[C@H]1CC[C@@H](c2ccc(Cl)c(Cl)c2)c2ccccc21", "note": "[Sertraline lactate Form A, sertraline lactate]", "Solubility": 1900},
      {"molecule": "CN[C@H]1CC[C@@H](c2ccc(Cl)c(Cl)c2)c2ccccc21", "note": "[sertraline HBr salt, sertraline HBr]", "Solubility": 600},
      {"molecule": "sertraline besylate [Sertraline besylate salt]", "Solubility": 300},
      {"molecule": "sertraline mesylate [Sertraline mesylate Form C]", "Solubility": 4200}
    ]}
  ]
}
